# According to patent US12648924B2, “Prevention and treatment of effects of aging and age-associated disorders with ketone supplementation” (priority 2020, dated 2026):
# Assay: Tolerability of KDE incorporated in food, bodyweight and food intake (pilot work, Experiment 4b)
# Type: in vivo, VM/Dk mice
# Source text: Food Intake and Ketone Diester Administration: Standard diet dry food (2018 Teklad Global 18% Protein Rodent Diet, Harlan) was mixed with deionized water (1 g dry food/mL deionized water) into a consistent paste and placed on a 100×15 mm dish. Food intake was tracked daily at the same time (7:00-9:00) and replaced every other day to ensure fresh food. Due to sinusoidal/oscillatory changes in food intake observed every other day (2-day pattern), a 4-day (2×2-day pattern) average was taken at EOL and baseline to calculate changes in anorexic symptoms. KDE was chemically synthesized with physical properties, preparation, and analysis described previously. For evaluation of KDE effect on anorexia, food intake was tracked daily at the same time (7:00-9:00). […] Consequently, upon VM-M3 inoculation, KDE+VM-M3 received ad libitum 0% KDE/weight day 1, 5% KDE day 2, 10% KDE day 3, 15% KDE day 4, 20% KDE day 5, 25% KDE day 6, and 30% KDE day 7 through 21 on top of HPSD. VM-M3 and Sham received HPSD ad libitum. As pilot work indicated potential water evaporation in food paste in ventilated cages, dehydration standard curve was calculated across various volumes of plated food (5, 10, 25.0, 50.0, 100 g/food) with and without KDE over a two-day period. Standard curve equation [water evaporated=0.2472 (original grams of water)+1.364] was used to correct for amount of dehydration prior to calculating caloric intake. For LPS experiments, 1×4 mL/kg KDE gavage or 1×4 mL/kg water gavage were administered for KDE+LPS and LPS-only, respectively. […]
# To determine whether KDE could alter systemic metabolism, blood metabolites were measured at baseline following a standard diet and after a 4-day transition to a standard diet supplemented with 20% KDE, 25% KDE, or 30% KDE. […] To determine whether KDE could alter metabolism in CACS, blood ketones, glucose, and lactate were measured weekly. […] Thus, to determine if KDE altered tumor burden, in vivo bioluminescence imaging was analyzed weekly.
compound,measurement,setting,value
"CC(=O)CC(=O)OCCC(C)OC(=O)CC(C)=O (stereo not drawn) [KDE, R/S 1,3-butanediol acetoacetate diester]",ad libitum food intake,"20-30% by weight KDE incorporated in standard diet, pilot work",reductions in ad libitum food intake
same,tolerability as indicated by bodyweight maintenance,30% KDE reached incrementally (5%/day) over 7 days,well-tolerated
same,bodyweight across time,"incremental incorporation 0-30% KDE/weight at 5% KDE/weight/day, highly palatable standard diet",did not result in changes in bodyweight across time
